Legend:
[1] = test system: MDSCs; experiment: 5FU treatment of BCG-treated mice displaying chronic inflammation; type: in vivo
Protocol: Normal C57B116 mice repeatedly exposed to heat-killed BCG were used as the mouse model for chronic inflammation^1. BCG was administered by three subcutaneous injections at 1 wk intervals, 100 μg per animal/dose; the first two doses were administrated with IFA (Incomplete Freund's adjuvant), and subsequent injections included heat-killed BCG in PBS. Unless stated otherwise, splenocytes were collected 2-3 days after the last injection. Control mice remained untreated. For experiments with chicken OVA (Sigma) as antigen, the same protocol was maintained: For a Th1 response BCG was administered as above but with OVA. For a Th2 response, the first and second injections were with 100 μg OVA adsorbed to Al(OH)3 (alum; Thermo), and the third injection was with 100 μg OVA in PBS. Experimental groups included at least three mice, and each experiment was repeated at least three times.
BCG-treated mice received three i.p. injections of 5-fluorouracil (5FU); The first 5FU injection (1 mg/mouse) was given at the day of the second BCG treatment and the second 5FU injection was given four days later. The third 5FU injection (0.5 mg/mouse) was given at the day of the third BCG treatment.
All the antibodies were purchased from Biolegend.

[2] = test system: MDSCs; conditions: recently demonstrated, reference 30; cited from earlier work
[3] = target: T1, SNX9 (sorting nexin 9 protein), endogenous in EL4 T cell line (Mus musculus, UniProt Q91VH2 1-595); experiment: immunoprecipitation of EL4 lysate with anti-CD3δ, immunoblot for SNX9
T1 construct: Endogenous protein in a Triton X-100 lysate of EL4 T cells; also called sorting nexin-9 [Mus musculus]

[4] = splenic cells of BCG+5FU treated mice vs BCG treated mice, immunoblotting, FIG. 14A

T1 sequence (Q91VH2 whole entry): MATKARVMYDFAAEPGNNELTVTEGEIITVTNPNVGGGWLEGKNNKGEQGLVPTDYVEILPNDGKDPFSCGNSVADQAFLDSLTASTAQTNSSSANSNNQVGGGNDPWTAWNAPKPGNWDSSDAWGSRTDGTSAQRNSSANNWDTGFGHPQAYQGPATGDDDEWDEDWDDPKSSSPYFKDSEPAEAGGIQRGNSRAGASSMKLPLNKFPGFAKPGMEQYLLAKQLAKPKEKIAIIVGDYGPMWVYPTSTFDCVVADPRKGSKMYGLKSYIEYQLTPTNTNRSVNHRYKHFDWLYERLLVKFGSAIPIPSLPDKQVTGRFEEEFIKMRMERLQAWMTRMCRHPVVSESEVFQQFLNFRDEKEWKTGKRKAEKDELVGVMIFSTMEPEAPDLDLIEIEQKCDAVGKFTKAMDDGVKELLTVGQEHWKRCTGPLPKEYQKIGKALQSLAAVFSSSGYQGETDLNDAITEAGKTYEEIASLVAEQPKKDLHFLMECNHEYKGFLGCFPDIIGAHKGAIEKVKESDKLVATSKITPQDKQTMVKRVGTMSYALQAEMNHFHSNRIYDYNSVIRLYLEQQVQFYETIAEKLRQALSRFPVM

| Molecule | MDSCs levels (Gr1+Mac1+ double-positive cells) ([1]; FACS of cells from BCG+5FU treated mice, FIG. 14B, C) | SNX9 expression levels [1, 4] | ζ chain expression levels [1, 4] | effect on MDSCs [2] | binding result [3] |
| --- | --- | --- | --- | --- | --- |
| O=c1[nH]cc(F)c(=O)[nH]1 [5FU, 5-fluorouracil] | Eliminates MDSCs | recovery | recovery | cytotoxic effect on MDSCs |  |
| CD3δ of EL4 T cell line (receptor, UniProt P04235 22-173, looked up, Immunoprecipitated from EL4 lysate with anti-CD3δ antibody) FKIQVTEYEDKVFVTCNTSVMHLDGTVEGWFAKNKTLNLGKGVLDPRGIYLCNGTEQLAKVVSSVQVHYRMCQNCVELDSGTMAGVIFIDLIATLLLALGVYCFAGHETGRPSGAAEVQALLKNEQLYQPLRDREDTQYSRLGGNWPRNKKS |  |  |  |  | no binding |

Source: patent US20140037659A1 (Yissum Research Development Company of the Hebrew …, priority 2011, published 2014)
